From paper PMC8989696, “Characterization of furathiocarb metabolism in in-vitro human liver microsomes and recombinant cytochrome P450 enzymes” (Toxicology Reports, 2022)

Experiments:
CYP1A2 = biological target: T1, CYP1A2 (Homo sapiens, UniProt P05177); assay: biochemical; format: in vitro ADME
T1 construct: from tissue; host or cells: pooled human liver microsomes (n = 10 donors)
T1 sequence (P05177 1-516): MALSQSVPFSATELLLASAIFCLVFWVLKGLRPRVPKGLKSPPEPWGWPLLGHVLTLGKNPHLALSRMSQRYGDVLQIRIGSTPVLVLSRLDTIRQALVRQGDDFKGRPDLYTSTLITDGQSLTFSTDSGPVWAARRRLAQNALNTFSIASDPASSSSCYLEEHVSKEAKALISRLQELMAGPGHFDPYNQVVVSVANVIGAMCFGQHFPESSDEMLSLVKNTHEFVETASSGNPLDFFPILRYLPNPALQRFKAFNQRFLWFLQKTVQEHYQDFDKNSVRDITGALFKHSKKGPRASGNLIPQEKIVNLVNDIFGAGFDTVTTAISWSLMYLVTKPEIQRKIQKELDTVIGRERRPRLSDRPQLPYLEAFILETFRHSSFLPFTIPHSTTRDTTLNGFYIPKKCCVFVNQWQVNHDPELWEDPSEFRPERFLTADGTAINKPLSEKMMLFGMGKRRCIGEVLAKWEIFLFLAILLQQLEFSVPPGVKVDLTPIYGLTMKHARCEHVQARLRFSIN
Procedure: (§1) N-in-one (“cocktail”) assay for measuring major CYP activities simultaneously, [55], [56] was employed to investigate human CYP-furathiocarb inhibitory interactions in pooled human hepatic microsomes. Furathiocarb (ﬁnal concentrations in the incubation mixture were 1, 5, 25, 50, and 100 µM) was added to the incubation mixture. The N-in-one was used earlier for the study of pesticide interactions and the details of the incubations with furathiocarb are described in Supplementary materials.
(§2) The kinetic parameters Vmax and Km were calculated by nonlinear regression. Bivariate linear Pearson’s correlation coefﬁcients (r2) were calculated between metabolite formations and model activities in the livers. GraphPad Prism 9 Software (Inc., San Diego, CA) Prism 9.0.0 (San Diego, CA) was used for kinetic parameters and correlation coefﬁcients analysis. The IC50 values were determined by linear regression analysis using OriginPro 2020 (MicroCal Software, Inc., Northampton, MA.
(§3) N-in-one assay was performed to investigate human CYP-furathiocarb inhibitory interactions. Furathiocarb (ﬁnal concentrations in the incubation mixture were 1, 5, 25, 50, and 100 µM) was added to the incubation mixture.
(§4) The N-in-one assay, analytical method and authentic standards have been described previously (Abass and Pelkonen 2013; Tolonen et al. 2007; Turpeinen et al. 2005). […]

CYP2C19 = biological target: T2, CYP2C19 (Homo sapiens, UniProt P33261); assay: biochemical; format: in vitro ADME
T2 construct: from tissue; host or cells: pooled human liver microsomes (n = 10 donors)
Procedure: as §1, §2, §3, §4

CYP2C9 = biological target: T3, CYP2C9 (Homo sapiens, UniProt P11712); assay: N-in-one CYP inhibition assay, pooled human hepatic microsomes, CYP2C9 (OH-TOL); format: in vitro ADME
T3 construct: from tissue; host or cells: pooled human liver microsomes (n = 10 donors)
Procedure: as §1, §2, §3, §4

[1] = 7 cases of acute fatalities, cited from earlier work
CYP2B6 = biological target: T4, CYP2B6 (Homo sapiens, UniProt P20813); assay: biochemical; format: in vitro ADME; design: from tissue; host or cells: pooled human liver microsomes (n = 10 donors)
T4 sequence (P20813 1-491): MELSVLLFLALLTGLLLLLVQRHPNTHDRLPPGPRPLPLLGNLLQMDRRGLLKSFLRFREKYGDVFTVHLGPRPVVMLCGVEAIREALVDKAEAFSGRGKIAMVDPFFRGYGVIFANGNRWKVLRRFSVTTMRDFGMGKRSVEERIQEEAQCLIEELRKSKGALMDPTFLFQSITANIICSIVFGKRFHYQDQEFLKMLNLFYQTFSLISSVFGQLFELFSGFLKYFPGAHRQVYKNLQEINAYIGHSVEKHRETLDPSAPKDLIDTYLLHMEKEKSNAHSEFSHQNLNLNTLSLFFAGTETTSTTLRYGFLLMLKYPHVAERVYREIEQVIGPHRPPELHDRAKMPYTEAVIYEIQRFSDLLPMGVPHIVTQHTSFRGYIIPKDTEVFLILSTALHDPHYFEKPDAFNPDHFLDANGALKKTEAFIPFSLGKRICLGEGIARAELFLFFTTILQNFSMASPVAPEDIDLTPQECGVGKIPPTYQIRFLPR
Procedure: as §1, §2, §3, §4

T3 sequence (P11712 whole entry): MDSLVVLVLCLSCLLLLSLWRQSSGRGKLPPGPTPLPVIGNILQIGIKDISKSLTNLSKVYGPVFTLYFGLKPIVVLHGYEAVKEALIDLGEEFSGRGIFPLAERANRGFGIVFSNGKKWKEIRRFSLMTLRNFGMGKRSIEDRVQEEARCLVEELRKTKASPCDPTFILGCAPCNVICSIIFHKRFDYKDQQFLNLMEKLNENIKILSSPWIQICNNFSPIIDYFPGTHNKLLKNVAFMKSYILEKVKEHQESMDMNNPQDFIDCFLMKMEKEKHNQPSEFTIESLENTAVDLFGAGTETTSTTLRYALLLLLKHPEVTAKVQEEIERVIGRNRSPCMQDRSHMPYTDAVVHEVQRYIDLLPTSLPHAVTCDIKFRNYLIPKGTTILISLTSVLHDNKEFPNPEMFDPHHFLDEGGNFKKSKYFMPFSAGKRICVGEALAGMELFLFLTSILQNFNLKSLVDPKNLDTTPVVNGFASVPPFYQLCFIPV
T2 sequence (P33261 whole entry): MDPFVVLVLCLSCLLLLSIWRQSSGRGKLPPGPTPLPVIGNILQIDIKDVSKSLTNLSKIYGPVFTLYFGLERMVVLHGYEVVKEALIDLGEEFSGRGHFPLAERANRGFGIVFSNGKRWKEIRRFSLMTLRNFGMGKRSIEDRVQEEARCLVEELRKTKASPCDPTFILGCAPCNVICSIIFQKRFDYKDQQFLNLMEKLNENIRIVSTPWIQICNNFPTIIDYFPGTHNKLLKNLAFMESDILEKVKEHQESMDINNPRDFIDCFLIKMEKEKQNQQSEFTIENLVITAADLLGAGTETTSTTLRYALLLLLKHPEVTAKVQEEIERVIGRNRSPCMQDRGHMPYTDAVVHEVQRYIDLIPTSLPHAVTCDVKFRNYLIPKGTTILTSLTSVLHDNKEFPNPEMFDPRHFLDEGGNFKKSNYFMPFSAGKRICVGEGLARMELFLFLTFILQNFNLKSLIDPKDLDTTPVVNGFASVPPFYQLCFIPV

`CCCCOC(=O)N(C)SN(C)C(=O)Oc1cccc2c1OC(C)(C)C2` [furathiocarb, Furathiocarb] gave an IC50 (CYP1A2) of 16.5 to 18.5 µM, an IC50 (CYP2C19) of 16.5 to 18.5 µM and an IC50 (CYP2C9) of 16.5 to 18.5 µM. For the same molecule, the “Concentrations in the blood (average)” value ([1]; n = 7) was 3600 ng/mL, the “Concentrations in the blood (range)” value [1] was 100 to 21600 ng/mL and the IC50 (CYP2B6) was 16.5 to 18.5 µM.
